For series [1] the following is noted: mouse; hepatocytes.
The conditions of series [2]: mouse; plasma.
The conditions of series [3]: rat; plasma.
Series [4] deals with SARS-CoV-2 Main Protease (SARS-CoV-2) (UniProt P0DTD1).
The conditions of series [5]: human; liver_microsomes.
For series [6] the following is noted: cattle; serum.
For series [7] the following is noted: human; plasma.
The conditions of series [8]: dog; liver_microsomes.
Assay in series [9]: not given
The source holds these as a separate data set.

For series [10] the following is noted: mouse; liver_microsomes.
For series [11] the following is noted: in vivo, iv.
For series [12] the following is noted: rat; in vivo; po; 10.0 mg/kg.
Assay in series [13]: not given
This is another data set of the same source.

For series [14] the following is noted: helaace2.
For series [15] the following is noted: pampa.
The subject of a further series is SARS-CoV-2 (SARS-CoV-2). Conditions: helaace2.

The text below walks through data of the COVID Moonshot data (paper PMC7615835).

SMILES strings stand for the structures. pEC50, pIC50: −log10 of the molar value. Several values for one entry are separate records, joined by “and”; a condition that tells them apart may be missing. Identical values can stand only once.

In general, half-life refers to how long it takes for the measured level to halve. Read a high half-life as slow loss. Broadly, the fraction unbound is the share of the substance not bound to proteins or other matrix. A lower fraction unbound goes with extensive binding. The term pIC50 denotes −log10 of the IC50, conventionally taken in molar units. A high value points to a low IC50. Broadly, the microsomal CLint is the rate of metabolic loss divided by the concentration. Read a low microsomal CLint as greater metabolic stability. In general, logD refers to lipophilicity at a set pH, counting ionised and neutral species. Read a low logD as a more hydrophilic compound. For orientation: AUC(0-inf) means the area under the concentration-time curve extrapolated to infinity. Low values mean low exposure, high ones high exposure. Broadly, the MRT inf is the average time that molecules of a dose stay in the body. For orientation: MRT last means the average time that molecules of a dose stay in the body. In general, Vd refers to a proportionality between amount in the body and measured concentration, not a real space. A word on the clearance: it is a measure of how efficiently the substance is removed, as volume per time. A lower clearance goes with a low capacity for elimination. In general, AUC(0-t) refers to exposure summed from dosing to a finite time, without extrapolation to infinity. A low value points to less exposure. The CL/F is the apparent clearance, not corrected for the fraction that reaches the circulation. Usually Cmax stands for the peak of the concentration-time curve. In general, Tmax refers to the time from dosing to the highest level. The term bioavailability denotes dose-corrected exposure relative to a reference, in per cent. Read a low bioavailability as little systemic uptake. A word on the Papp: it is the rate of passage across a membrane or cell layer, normalised by area and donor concentration. One may read the pEC50 as −log10 of the EC50, conventionally taken in molar units. A low value points to a high EC50. Broadly, the EC90 is the concentration needed for an effect of 90%.

Turning to `O=C(Nc1cncc2ccccc12)[C@@H]1CCNc2cc(Cl)c(Cl)cc21` (stereo in doubt), the logD was 3.4 and 3.54. The compound further yielded a half-life in [1] of 83 min. In series [2], the fraction unbound amounted to 0.039 and the recovery was determined as 98.1%. Moreover, in series [3], the fraction unbound was 0.033 (2×) and 0.029; the recovery came out at 98.4%. Besides, the pIC50 in series [4] was > 7.30 and 7.32. In addition, the microsomal CLint in series [5] worked out at 40 µL/min/mg. In series [6], this compound returned a fraction unbound of 0.584 and a recovery of 70.6%. Besides, in series [7], the fraction unbound was 0.049 (2×) and 0.023; the recovery was determined as 105%. In series [8], this compound had a half-life of 27.9 min and a microsomal CLint of 62.2 µL/min/mg. Also, in series [9], the logD came out at 3.8. Further, in series [10], the half-life was found to be 9.3 min; the microsomal CLint is 290 µL/min/mg and 186 µL/min/mg. In [11] (rat, 0.5 mg/kg), the AUC(0-inf) is 198 ng·h/mL and 170 ng·h/mL; the C0 is 559 ng/mL and 452 ng/mL; the MRT inf is 33.1 min and 29.5 min; the MRT last was 26.2 min and 27.9 min. Moreover, in series [11] (rat, 0.5 mg/kg), the Vd is 1.46 L/kg and 1.94 L/kg; the clearance was 49.6 mL/min/kg and 60.7 mL/min/kg. Besides, in [11] (rat, 1.0 mg/kg), the AUC(0-inf) was 220 ng·h/mL and 249 ng·h/mL; the C0 was 324 ng/mL and 410 ng/mL; the MRT inf was 44.1 min and 46 min; the MRT last is 44.8 min and 42.7 min. In [11] (rat, 1.0 mg/kg), the Vd was 3.49 L/kg and 2.99 L/kg; the clearance is 75.9 mL/min/kg and 68 mL/min/kg; the half-life is 38.2 min and 32.5 min. In series [12], the AUC(0-inf) came to 257 ng·h/mL, the AUC(0-t) was 247 ng·h/mL, the CL/F was 653 mL/min/kg and the Cmax was found to be 40.4 ng/mL. In series [12], the MRT last worked out at 397 min; the Tmax was determined as 120 min; the bioavailability was 10.2% (2×) and 11.9%; the half-life stood at 255 min.
In the case of `CN1CCN(S(=O)(=O)N2Cc3ccc(Cl)cc3C(C(=O)Nc3cncc4ccccc34)C2)CC1` (centres undefined), the pIC50 in series [4] was 6.94. In series [9], this compound registered a logD of 2.1. For the same compound, in series [11] (rat, 0.5 mg/kg), the AUC(0-inf) was 88 ng·h/mL and 85 ng·h/mL; the AUC(0-t) was 84.3 ng·h/mL and 82.4 ng·h/mL; the C0 is 211 ng/mL and 112 ng/mL; the MRT inf is 56.3 min and 30.7 min. In addition, in series [11] (rat, 0.5 mg/kg), the MRT last is 24.9 min and 47.2 min; the Vd is 1.6 L/kg and 3.12 L/kg; the clearance is 52.1 mL/min/kg and 55.5 mL/min/kg; the half-life is 29.6 min and 52.7 min.
In [4], `O=C(Nc1cncc2ccccc12)C1CCOc2c(OCc3ccncc3)cc(Cl)cc21` (centres undefined) gave a pIC50 of 5.46. The CC50 in series [13] (a549) is above 9.99 µM.
On to `COc1ccc(C[C@H](N)C(=O)N[C@H]2[C@@H](O)[C@H](n3cnc4c(N(C)C)ncnc43)O[C@@H]2CO)cc1` (stereo in doubt), for which the CC50 in series [14] is 0.325 µM and 0.831 µM and 0.504 µM.
As to `C=CC(=O)N(C(=O)C1COc2ccc(Cl)cc21)c1cncc2ccccc12` (centres undefined), the Papp in series [15] worked out at 435 ×10⁻⁶ cm/s.
`Cc1ccc(CC(=O)Nc2cncc3ccccc23)cc1Cl` showed a pIC50 in series [4] of 5.96. Besides, the CC50 in [13] (a549) was above 9.99 µM.
As for `COC(=O)[C@@H]1C[C@@H](NC(=O)C(c2cccnc2)N(C(=O)c2cocn2)c2ccc(C(C)(C)C)cc2)CN1C(=O)OC(C)(C)C` (stereo in doubt), the pIC50 in series [4] is 5.17. The compound further registered a CC50 in series [13] (vero) above 10 µM.
In turn, `CS(=O)(=O)c1ccc2cncc(NC(=O)C3CCNc4cc(Cl)c(Cl)cc43)c2c1` (centres undefined) had a pIC50 in [4] of 6.28. In series [9], the logD came out at 3.1. Also, in [13] (a549), the CC50 is above 9.99 µM. Further, in [11] (rat, 0.5 mg/kg), the AUC(0-inf) is 285 ng·h/mL and 378 ng·h/mL and 178 ng·h/mL; the AUC(0-t) is 282 ng·h/mL and 377 ng·h/mL and 175 ng·h/mL; the C0 is 741 ng/mL and 1320 ng/mL and 725 ng/mL; the MRT inf was 28.6 min and 41 min and 22.8 min. Further, in [11] (rat, 0.5 mg/kg), the MRT last was 38 min and 27.8 min and 21 min; the Vd was 1.2 L/kg and 0.645 L/kg and 1.15 L/kg; the clearance was 29.2 mL/min/kg and 22.4 mL/min/kg and 50.2 mL/min/kg; the half-life is 38.9 min and 29.9 min and 21.2 min.
Compound `N#Cc1cc(Cl)cc2c1NCCC2C(=O)Nc1cncc2ccccc12` (centres undefined) showed a pIC50 in series [4] of 6.62. In addition, in series [13] (a549), the CC50 was above 9.99 µM.
In turn, `O=C(Cc1cccc(Cl)c1)Nc1cncc2cc(F)ccc12` gave a pIC50 in [4] of 5.83. The same compound displayed a CC50 in series [13] (a549) above 9.99 µM.
For the compound `COc1ccc(Cl)cc1OCCNC(=O)c1cc(=O)[nH]c2cccc(OC)c12`, in series [15], the Papp was determined as 109 ×10⁻⁶ cm/s. For the same compound, the pIC50 in [4] was 6.06.
`O=C(Nc1cncc2ccccc12)C(NC(=O)[C@@H]1CCCO1)c1cccc(Cl)c1` (stereo in doubt) showed a pIC50 in [4] of 5.64. Besides, the CC50 in [13] (a549) is above 9.99 µM.
Take `O=C(Cc1cc(F)cc(Cl)c1)Nc1cncc2ccccc12`: the pIC50 in series [4] is 6.43 and 6.40. This compound also registered a CC50 in [13] (a549) above 9.99 µM.
Take `CC1Cn2nccc2CN1C(=O)CC1(C(=O)Nc2cncc3ccccc23)CCOc2ccc(Cl)cc21` (centres undefined): the pIC50 in series [4] was 5.81 and 5.55. Further, the CC50 in series [13] (a549) is above 9.99 µM.
With `Cc1cccc(/C=N/Nc2cc(N3CCOCC3)nc(OCCc3ccccn3)n2)c1`, in the series on SARS-CoV-2 (SARS-CoV-2), the pEC50 is > 8.00 and 7.83 and 7.64; the EC90 was 0.158 µM and 0.0708 µM and 0.0829 µM.
For `CNC(=O)c1cc2c(NC(=O)C3CCOc4ccc(Cl)cc43)cncc2s1` (centres undefined), the pIC50 in [4] was 6.24. In series [9], this compound registered a logD of 3. Besides, in series [11] (rat, 0.5 mg/kg), the AUC(0-inf) was 267 ng·h/mL and 298 ng·h/mL; the AUC(0-t) is 263 ng·h/mL and 291 ng·h/mL; the C0 was 712 ng/mL and 752 ng/mL; the MRT inf was 55.4 min and 40.1 min. In series [11] (rat, 0.5 mg/kg), the mean residence time (MRT last) is 35.8 min and 39.7 min; the Vd is 1.45 L/kg and 1.85 L/kg; the clearance was 36.2 mL/min/kg and 32.6 mL/min/kg; the half-life was 39.1 min and 113 min.
`O=C(Cc1ccc(Cl)c(Cl)c1)Nc1cncc2cnccc12` had a pIC50 in [4] of 5.73. Also, the CC50 in [13] (a549) was above 9.99 µM.
Take `CCC(CC)COC(=O)[C@H](C)NP(=O)(OC[C@H]1O[C@@](C#N)(c2ccc3c(N)ncnn23)[C@H](O)[C@@H]1O)Oc1ccccc1` (stereo in doubt): in [14], the CC50 was 10.8 µM and 27 µM and 16.4 µM.
Consider `COc1ccc2cncc(NC(=O)C3(OC)CCOc4ccc(Cl)cc43)c2c1` (centres undefined), for which the negative-log IC50 (pIC50) in [4] is 6.94 and 6.92. In series [9], the logD worked out at 3.4. Further, in [11] (mouse, 0.5 mg/kg), the total exposure AUC(0-inf) was 98.2 ng·h/mL and 108 ng·h/mL; the C0 is 246 ng/mL and 252 ng/mL; the MRT inf is 41.5 min and 34.1 min; the MRT last was 30.8 min and 28.1 min. Moreover, in series [11] (mouse, 0.5 mg/kg), the Vd was 3.52 L/kg and 2.67 L/kg; the clearance is 84.9 mL/min/kg and 77.9 mL/min/kg; the half-life was 35.6 min and 29 min.
For the compound `Cc1nc2n(n1)CC(C(=O)NC(C)(C(=O)Nc1cncc3ccccc13)c1ccc(Cl)c(Cl)c1)CC2` (centres undefined), in [4], the pIC50 is 5.46 and 5.17. This compound also had a CC50 in series [13] (a549) above 9.99 µM.
Compound `CN(C)C(=O)C[C@]1(C(=O)Nc2cncc3ccccc23)CCOc2ccc(Cl)cc21` (stereo in doubt) had a pIC50 in series [4] of 5.89. Besides, the CC50 in [13] (vero) is above 9.99 µM.
For the compound `O=C(Nc1cncc2ccncc12)[C@H]1CCOc2ccc(Cl)cc21` (stereo in doubt), the logD is 2.59 and 2.5. In series [2], this compound displayed a fraction unbound of 0.219 and a recovery of 102%. The same compound came in with a logD in series [9] of 2.6. The compound further came in with a CC50 in series [13] (a549) above 9.99 µM. In series [10], this compound came in with a half-life of 7.8 min and a microsomal CLint of 223 µL/min/mg. In addition, in [11] (mouse, 0.5 mg/kg), the AUC(0-inf) was 113 ng·h/mL and 122 ng·h/mL; the AUC(0-t) was 112 ng·h/mL and 118 ng·h/mL; the C0 was 525 ng/mL and 604 ng/mL; the MRT inf was 13.7 min and 14.6 min. Besides, in series [11] (mouse, 0.5 mg/kg), the MRT last was 13 min; the Vd was 1.01 L/kg and 1 L/kg; the clearance is 73.5 mL/min/kg and 68.7 mL/min/kg; the half-life is 9.48 min and 11.9 min.
Compound `O=C(Nc1cncc2ccccc12)C(O)c1ccc(Cl)c(Cl)c1` (centres undefined) had a pIC50 in [4] of 5.70. The CC50 in [13] (a549) was above 9.99 µM.
